Test results: publication PMC5218480 (PLoS ONE, 2017)

System: MV-4-11 cells
Experiment: Gene expression microarray analysis (Affymetrix PrimeView) and GSEA
Type: cell-based, human
Design: RFU PODN (11730768_x_at) / Fold change /veh PODN (11730768_x_at) / RFU LINC00158 (11744669_a_at) / Fold change /veh LINC00158 (11744669_a_at) / RFU DUSP10 (11751237_a_at) / Fold change /veh DUSP10 (11751237_a_at) / RFU ID3 (11757404_x_at) / Fold change /veh ID3 (11757404_x_at) / RFU PLEKHG5 (11737974_s_at) / Fold change /veh PLEKHG5 (11737974_s_at) / RFU LRRC4B (11730491_at) / Fold change /veh LRRC4B (11730491_at) / RFU GIMAP4 (11747438_a_at) / Fold change /veh GIMAP4 (11747438_a_at) / RFU KRT8 (11758183_x_at) / Fold change /veh KRT8 (11758183_x_at) / RFU CNN1 (11734310_a_at) / Fold change /veh CNN1 (11734310_a_at) / RFU VPS37D (11726825_at) / Fold change /veh VPS37D (11726825_at) / RFU C10orf10 (11716522_x_at) / Fold change /veh C10orf10 (11716522_x_at) / RFU KIR2DL2 /// KIR2DL4 /// KIR2DL5A /// KIR2DL5B /// KIR2DS1 /// KIR2DS2 /// KIR2DS3 /// KIR2DS4 /// KIR3DL3 /// KIR3DL3 /// KIR3DS1 (11738374_at) / Fold change /veh KIR2DL2 /// KIR2DL4 /// KIR2DL5A /// KIR2DL5B /// KIR2DS1 /// KIR2DS2 /// KIR2DS3 /// KIR2DS4 /// KIR3DL3 /// KIR3DL3 /// KIR3DS1 (11738374_at) / RFU C1QL1 (11718748_at) / Fold change /veh C1QL1 (11718748_at) / RFU TMPRSS4 (11747572_a_at) / Fold change /veh TMPRSS4 (11747572_a_at) / RFU HAMP (11756126_x_at) / Fold change /veh HAMP (11756126_x_at) / RFU RNFT2 (11725882_a_at) / Fold change /veh RNFT2 (11725882_a_at) / RFU NR4A2 (11747474_a_at) / Fold change /veh NR4A2 (11747474_a_at) / RFU ABCC12 (11746883_a_at) / Fold change /veh ABCC12 (11746883_a_at) / RFU TMEM136 (11760407_x_at) / Fold change /veh TMEM136 (11760407_x_at) / RFU CLDN22 /// WWC2 (11732394_at) / Fold change /veh CLDN22 /// WWC2 (11732394_at) / RFU HLA-DPB1 (11760878_x_at) / Fold change /veh HLA-DPB1 (11760878_x_at) / RFU SPINT1 (11716480_a_at) / Fold change /veh SPINT1 (11716480_a_at) / RFU GAP43 (11754022_s_at) / Fold change /veh GAP43 (11754022_s_at) / RFU A4GNT (11735810_at) / Fold change /veh A4GNT (11735810_at) / RFU PRB3 (11715151_x_at) / Fold change /veh PRB3 (11715151_x_at) / RFU TUBB4B (11761932_at) / Fold change /veh TUBB4B (11761932_at) / RFU CAPN14 (11732068_a_at) / Fold change /veh CAPN14 (11732068_a_at) / RFU TMCC2 (11721928_a_at) / Fold change /veh TMCC2 (11721928_a_at) / RFU IRGQ (11745062_a_at) / Fold change /veh IRGQ (11745062_a_at) / RFU FAM174B (11720279_a_at) / Fold change /veh FAM174B (11720279_a_at) / RFU TMPRSS4 (11748680_a_at) / Fold change /veh TMPRSS4 (11748680_a_at) / RFU FAM212B (11763350_a_at) / Fold change /veh FAM212B (11763350_a_at) / RFU PLEKHG5 (11743358_a_at) / Fold change /veh PLEKHG5 (11743358_a_at) / RFU ZSCAN30 (11745921_a_at) / Fold change /veh ZSCAN30 (11745921_a_at) / RFU CMKLR1 (11741424_a_at) / Fold change /veh CMKLR1 (11741424_a_at) / RFU LOC101060620 /// MAPK8IP1 (11723275_at) / Fold change /veh LOC101060620 /// MAPK8IP1 (11723275_at) / RFU SPTSSB (11747773_x_at) / Fold change /veh SPTSSB (11747773_x_at) / RFU PRSS12 (11739890_at) / Fold change /veh PRSS12 (11739890_at) / RFU BIN1 (11741810_x_at) / Fold change /veh BIN1 (11741810_x_at) / RFU WNT11 (11732464_a_at) / Fold change /veh WNT11 (11732464_a_at) / RFU C10orf10 (11716521_a_at) / Fold change /veh C10orf10 (11716521_a_at) / RFU C5orf56 (11738089_at) / Fold change /veh C5orf56 (11738089_at) / RFU CYB561 (11721691_x_at) / Fold change /veh CYB561 (11721691_x_at) / RFU ANKRD19P (11752326_a_at) / Fold change /veh ANKRD19P (11752326_a_at) / RFU OR2T12 /// OR2T33 /// OR2T8 (11738714_s_at) / Fold change /veh OR2T12 /// OR2T33 /// OR2T8 (11738714_s_at) / RFU VCAN (11748164_a_at) / Fold change /veh VCAN (11748164_a_at) / RFU JSRP1 (11732532_at) / Fold change /veh JSRP1 (11732532_at) / RFU KRTAP10-11 (11738290_x_at) / Fold change /veh KRTAP10-11 (11738290_x_at) / RFU MYO3A (11730013_a_at) / Fold change /veh MYO3A (11730013_a_at) / RFU EBF3 (11725865_a_at) / Fold change /veh EBF3 (11725865_a_at) / RFU CAMK2N1 (11719241_x_at) / Fold change /veh CAMK2N1 (11719241_x_at) / RFU C5orf56 (11738088_a_at) / Fold change /veh C5orf56 (11738088_a_at) / RFU OLFML3 (11715873_a_at) / Fold change /veh OLFML3 (11715873_a_at) / RFU LOC100653217 /// NTM (11731650_a_at) / Fold change /veh LOC100653217 /// NTM (11731650_a_at) / RFU MAPK11 (11762145_a_at) / Fold change /veh MAPK11 (11762145_a_at) / RFU FIZ1 (11724087_x_at) / Fold change /veh FIZ1 (11724087_x_at) / RFU OASL (11726364_x_at) / Fold change /veh OASL (11726364_x_at) / RFU SOX15 (11748057_x_at) / Fold change /veh SOX15 (11748057_x_at) / RFU CD79A (11719716_a_at) / Fold change /veh CD79A (11719716_a_at) / RFU HIST1H1D (11736915_at) / Fold change /veh HIST1H1D (11736915_at) / RFU CASKIN2 (11723855_a_at) / Fold change /veh CASKIN2 (11723855_a_at) / RFU LOC730098 (11760151_x_at) / Fold change /veh LOC730098 (11760151_x_at) / RFU OR4N2 (11742367_at) / Fold change /veh OR4N2 (11742367_at) / RFU PRRT2 (11749266_a_at) / Fold change /veh PRRT2 (11749266_a_at) / RFU SNX32 (11753110_a_at) / Fold change /veh SNX32 (11753110_a_at) / RFU CDHR5 (11726645_a_at) / Fold change /veh CDHR5 (11726645_a_at) / RFU RCAN1 (11760418_a_at) / Fold change /veh RCAN1 (11760418_a_at) / RFU FAM167A (11723789_a_at) / Fold change /veh FAM167A (11723789_a_at) / RFU FAM26E (11764081_at) / Fold change /veh FAM26E (11764081_at) / RFU ISYNA1 (11749810_s_at) / Fold change /veh ISYNA1 (11749810_s_at) / RFU ACY1 (11761880_at) / Fold change /veh ACY1 (11761880_at) / RFU 11764098_at / Fold change /veh 11764098_at / RFU SAMD14 (11745864_x_at) / Fold change /veh SAMD14 (11745864_x_at) / RFU NPB (11741838_a_at) / Fold change /veh NPB (11741838_a_at) / RFU TMPRSS6 (11731388_a_at) / Fold change /veh TMPRSS6 (11731388_a_at) / RFU KRTAP10-2 (11738614_at) / Fold change /veh KRTAP10-2 (11738614_at) / RFU ARHGAP8 /// PRR5-ARHGAP8 (11727945_x_at) / Fold change /veh ARHGAP8 /// PRR5-ARHGAP8 (11727945_x_at) / RFU KRTAP5-7 /// NADSYN1 (11734609_at) / Fold change /veh KRTAP5-7 /// NADSYN1 (11734609_at) / RFU RASL12 (11751679_a_at) / Fold change /veh RASL12 (11751679_a_at) / RFU CDKN2B (11736163_a_at) / Fold change /veh CDKN2B (11736163_a_at) / RFU PRF1 (11729649_at) / Fold change /veh PRF1 (11729649_at) / RFU, ZNF638 /// ZNF638-IT1 / Fold change vs veh, ZNF638 /// ZNF638-IT1 / RFU, PANK3 / Fold change vs veh, PANK3 / RFU, SH3YL1 / Fold change vs veh, SH3YL1 / RFU, ZEB2 / Fold change vs veh, ZEB2 / RFU, NRIP1 / Fold change vs veh, NRIP1 / RFU, PTTG1IP / Fold change vs veh, PTTG1IP / RFU, CAPN2 / Fold change vs veh, CAPN2 / RFU, MED14 / Fold change vs veh, MED14 / RFU, SNORA58 / Fold change vs veh, SNORA58 / RFU, C1orf63 / Fold change vs veh, C1orf63 / RFU, LRRFIP1 / Fold change vs veh, LRRFIP1 / RFU, NDUFAF7 / Fold change vs veh, NDUFAF7 / RFU, SLC12A2 / Fold change vs veh, SLC12A2 / RFU, IBTK / Fold change vs veh, IBTK / RFU, ESF1 / Fold change vs veh, ESF1 / Fold change vs veh, TMEM50B / RFU, TAOK1 / Fold change vs veh, TAOK1 / RFU, ACBD3 / Fold change vs veh, ACBD3 / RFU, TMA16 / Fold change vs veh, TMA16 / RFU, RWDD3 / Fold change vs veh, RWDD3 / RFU, BCAT1 / Fold change vs veh, BCAT1 / RFU, EDEM3 / Fold change vs veh, EDEM3 / RFU, TMEM33 / Fold change vs veh, TMEM33 / RFU, WDR75 / Fold change vs veh, WDR75 / RFU, AHCTF1 / Fold change vs veh, AHCTF1 / RFU, TFRC / Fold change vs veh, TFRC / RFU, ZDHHC17 / Fold change vs veh, ZDHHC17 / RFU, NOM1 / Fold change vs veh, NOM1 / RFU, ARL8B / Fold change vs veh, ARL8B / RFU, ZBTB11 / Fold change vs veh, ZBTB11 / RFU, TAMM41 / Fold change vs veh, TAMM41 / RFU, KIAA1704 /// LOC100996395 / Fold change vs veh, KIAA1704 /// LOC100996395 / RFU, ING1 / Fold change vs veh, ING1 / RFU, TRMT61B / Fold change vs veh, TRMT61B / RFU, FUBP3 / Fold change vs veh, FUBP3 / RFU, TP53 / Fold change vs veh, TP53 / RFU, TNKS2 / Fold change vs veh, TNKS2 / RFU, ZFP14 / Fold change vs veh, ZFP14 / RFU, ACTR2 / Fold change vs veh, ACTR2 / RFU, PPP3R1 / Fold change vs veh, PPP3R1 / RFU, PIK3R1 / Fold change vs veh, PIK3R1 / RFU, HNRNPA1 / Fold change vs veh, HNRNPA1 / RFU, RNF170 / Fold change vs veh, RNF170 / RFU, ZNF28 / Fold change vs veh, ZNF28 / RFU, RNGTT / Fold change vs veh, RNGTT / RFU, OGT / Fold change vs veh, OGT / RFU, BRD1 / Fold change vs veh, BRD1 / RFU, MARS / Fold change vs veh, MARS / RFU, ZNF655 / Fold change vs veh, ZNF655 / RFU, FAHD1 / Fold change vs veh, FAHD1 / RFU, BDP1 / Fold change vs veh, BDP1 / RFU, LRRCC1 / Fold change vs veh, LRRCC1 / RFU, ARID1A / Fold change vs veh, ARID1A / RFU, ZNF146 / Fold change vs veh, ZNF146 / RFU, ZNF330 / Fold change vs veh, ZNF330 / RFU, GPN3 / Fold change vs veh, GPN3 / RFU, C9orf123 / Fold change vs veh, C9orf123 / RFU, N4BP2L2 / Fold change vs veh, N4BP2L2 / RFU, ARFIP1 / Fold change vs veh, ARFIP1 / RFU, FAM179B / Fold change vs veh, FAM179B / RFU, BCL10 / Fold change vs veh, BCL10 / RFU, UHRF1BP1L / Fold change vs veh, UHRF1BP1L / RFU, BET1 / Fold change vs veh, BET1 / RFU, CNOT2 / Fold change vs veh, CNOT2 / RFU, ZNF268 / Fold change vs veh, ZNF268 / Fold change vs veh, ZNF507 / RFU, DGCR2 / Fold change vs veh, DGCR2 / RFU, WDSUB1 / Fold change vs veh, WDSUB1 / Fold change vs veh, HSP90B1 /// MIR3652 / RFU, ADSS / Fold change vs veh, ADSS / RFU, GK / Fold change vs veh, GK / RFU, ZNF148 / Fold change vs veh, ZNF148 / RFU, TAF9 / Fold change vs veh, TAF9 / RFU, SLC1A5 / Fold change vs veh, SLC1A5 / RFU, SLMO2 / Fold change vs veh, SLMO2 / RFU, ABCC4 / Fold change vs veh, ABCC4 / RFU, LOC101060439 /// RAP1B / Fold change vs veh, LOC101060439 /// RAP1B / RFU, RFX7 / Fold change vs veh, RFX7 / RFU, GTPBP10 / Fold change vs veh, GTPBP10 / RFU, CNEP1R1 / Fold change vs veh, CNEP1R1 / RFU, BIVM-ERCC5 /// ERCC5 / Fold change vs veh, BIVM-ERCC5 /// ERCC5 / RFU, ILF3 / Fold change vs veh, ILF3 / RFU 11762660_at / Fold change /veh 11762660_at / RFU VCAN (11757783_s_at) / Fold change /veh VCAN (11757783_s_at) / RFU DDX43 (11728927_at) / Fold change /veh DDX43 (11728927_at) / RFU KRT8 (11758188_x_at) / Fold change /veh KRT8 (11758188_x_at) / RFU NKD1 (11759106_at) / Fold change /veh NKD1 (11759106_at) / RFU SRD5A1 (11742802_a_at) / Fold change /veh SRD5A1 (11742802_a_at) / RFU TPSAB1 /// TPSB2 (11721975_s_at) / Fold change /veh TPSAB1 /// TPSB2 (11721975_s_at) / RFU GSTM3 (11746129_a_at) / Fold change /veh GSTM3 (11746129_a_at) / RFU IL23R (11737362_x_at) / Fold change /veh IL23R (11737362_x_at) / RFU TMEM51 (11727254_a_at) / Fold change /veh TMEM51 (11727254_a_at) / RFU PIWIL2 (11732686_x_at) / Fold change /veh PIWIL2 (11732686_x_at) / RFU ORM1 (11744905_x_at) / Fold change /veh ORM1 (11744905_x_at) / RFU CCDC152 (11743942_at) / Fold change /veh CCDC152 (11743942_at) / RFU ECM1 (11717891_a_at) / Fold change /veh ECM1 (11717891_a_at) / RFU IL23R (11748794_a_at) / Fold change /veh IL23R (11748794_a_at) / RFU TNFAIP8L3 (11732012_x_at) / Fold change /veh TNFAIP8L3 (11732012_x_at) / RFU MBOAT4 (11741988_at) / Fold change /veh MBOAT4 (11741988_at) / RFU 11764193_at / Fold change /veh 11764193_at / RFU TMEM53 (11763286_at) / Fold change /veh TMEM53 (11763286_at) / RFU MAGEB2 (11727129_at) / Fold change /veh MAGEB2 (11727129_at) / RFU TMEM200A (11744735_a_at) / Fold change /veh TMEM200A (11744735_a_at) / RFU CCDC152 (11751479_a_at) / Fold change /veh CCDC152 (11751479_a_at) / RFU FAM211A (11726209_a_at) / Fold change /veh FAM211A (11726209_a_at) / RFU RGS16 (11746705_a_at) / Fold change /veh RGS16 (11746705_a_at) / RFU VCAN (11755009_s_at) / Fold change /veh VCAN (11755009_s_at) / RFU RHOB (11743442_s_at) / Fold change /veh RHOB (11743442_s_at) / RFU RGS16 (11720943_a_at) / Fold change /veh RGS16 (11720943_a_at) / RFU RGS16 (11720944_at) / Fold change /veh RGS16 (11720944_at) / RFU, VPS4B / Fold change vs veh, VPS4B / RFU, CREB1 / Fold change vs veh, CREB1 / RFU, DNAJC13 / Fold change vs veh, DNAJC13 / RFU, GNAQ / Fold change vs veh, GNAQ / RFU, CDK5R1 / Fold change vs veh, CDK5R1 / RFU, ZRANB3 / Fold change vs veh, ZRANB3 / RFU, CUL4A / Fold change vs veh, CUL4A / RFU, CCNY / Fold change vs veh, CCNY / RFU, UFL1 / Fold change vs veh, UFL1 / RFU, COG3 / Fold change vs veh, COG3 / RFU, DIAPH2 / Fold change vs veh, DIAPH2 / RFU, SKA2 / Fold change vs veh, SKA2 / RFU, AFF3 / Fold change vs veh, AFF3 / RFU, LMF1 / Fold change vs veh, LMF1 / RFU, IPO11 / Fold change vs veh, IPO11 / RFU, DFFB / Fold change vs veh, DFFB / RFU, FOXP1 / Fold change vs veh, FOXP1 / RFU, CARD8 / Fold change vs veh, CARD8 / RFU, STRN3 / Fold change vs veh, STRN3 / RFU, ADK / Fold change vs veh, ADK / RFU, RASSF2 / Fold change vs veh, RASSF2 / RFU, WIPF1 / Fold change vs veh, WIPF1 / RFU, LARP1B / Fold change vs veh, LARP1B / RFU, RASA1 / Fold change vs veh, RASA1 / RFU, RB1 / Fold change vs veh, RB1 / RFU, PPFIA1 / Fold change vs veh, PPFIA1 / RFU, MAT2A / Fold change vs veh, MAT2A / RFU, CCT5 / Fold change vs veh, CCT5 / RFU, WDR92 / Fold change vs veh, WDR92 / RFU, CUX1 / Fold change vs veh, CUX1 / RFU, TTC7A / Fold change vs veh, TTC7A / RFU, TMEM135 / Fold change vs veh, TMEM135 / RFU, DEPTOR / Fold change vs veh, DEPTOR / RFU, CPM / Fold change vs veh, CPM / RFU, DNAJB6 / Fold change vs veh, DNAJB6 / RFU, CACNA2D3 / Fold change vs veh, CACNA2D3 / RFU, DTX4 / Fold change vs veh, DTX4 / RFU, TFCP2 / Fold change vs veh, TFCP2 / RFU, GMCL1 /// GMCL1P1 / Fold change vs veh, GMCL1 /// GMCL1P1 / RFU, AEBP2 / Fold change vs veh, AEBP2 / RFU, SNHG1 /// SNORD22 /// SNORD25 /// SNORD26 /// SNORD27 /// SNORD28 /// SNORD29 /// SNORD31 / Fold change vs veh, SNHG1 /// SNORD22 /// SNORD25 /// SNORD26 /// SNORD27 /// SNORD28 /// SNORD29 /// SNORD31 / Fold change (Aza/veh), C12orf56 (ProbeSet 11735607_a_at) / Fold change (ACY-1035/veh), C12orf56 (ProbeSet 11735607_a_at) / Fold change (Aza/veh), FGFR1OP (ProbeSet 11751329_s_at) / Fold change (ACY-1035/veh), FGFR1OP (ProbeSet 11751329_s_at) / Fold change (Aza/veh), VPS36 (ProbeSet 11739960_a_at) / Fold change (ACY-1035/veh), VPS36 (ProbeSet 11739960_a_at) / RFU SYPL1 (11715823_x_at) / Fold change /veh SYPL1 (11715823_x_at) / RFU IGFBP7 (11715501_s_at) / Fold change /veh IGFBP7 (11715501_s_at) / RFU REEP3 (11722064_at) / Fold change /veh REEP3 (11722064_at) / RFU IGLL1 (11728026_x_at) / Fold change /veh IGLL1 (11728026_x_at): dose or concentration left out as unconfirmed
Details: MV-4-11 cells, 48 hours

## Nc1ncn([C@@H]2O[C@H](CO)[C@@H](O)[C@H]2O)c(=O)n1 [azacitidine]
  RFU RGS16 (11720943_a_at): 102.77 RFU
